Measured values as given in PMC10221466, “Isolation of Nocuolin A and Synthesis of New Oxadiazine Derivatives. Design, Synthesis, Molecular Docking, Apoptotic Evaluation, and Cathepsin B Inhibition” (Marine Drugs, 2023).
“Also recorded” adds a separate entry of the source. Read-outs that look alike come from different tables or passages of the source. Starred links: 1 amine or outer side, 2 acyl side, 3 side chain; linkers in the order of their positions; H or OH if unused. Positions of bridges follow the written chain, without caps; N, C: chain ends. Non-standard residues stand in square brackets, D forms with d. Residues, ends and D or L forms follow the SMILES beside them. Chains are numbered I, II in the order given. Actinocin(9to1) = Cc1c2oc3c(C)ccc(C(=O)[*:1])c3nc-2c(C(=O)[*:2])c(N)c1=O; NMeV = CN[C@H](C(=O)O)C(C)C; Sar = CNCC(=O)O

How the values were obtained:
ACHN cells = assay: SRB viability assay, ACHN cells; format: cell-based; details: Homo sapiens, 72 h
Source text: (§1) Two tumour cell lines, ACHN (Human kidney carcinoma) and Hepa-1c1c7 (Human liver carcinoma), and two non-tumour cell lines, TKPTS (Mus musculus kidney normal) and FL83B (Mus musculus liver normal), were used in this study. The cell lines were purchased by the company VALORALIA I MÁS D, SL. From LGC Standards, which is the exclusive distributor of American Type Culture Collection (ATTC) products. […] Likewise, Hepa-1c1c7 (CRL-2026 BSL 1) is an epithelial cell line that was isolated from the liver of a patient with hepatoma. On the other hand, TKPTS (CRL-3361 BSL 2) is a normal cell line with epithelial-like morphology that was isolated in 1997 from the proximal tubule of a mouse kidney. Finally, FL83B (CRL-2390 BSL 1) is a hepatocyte cell that was isolated from the liver of a 15- to 17-day-old foetal mouse in 1969. The cells were maintained in a Dulbecco's modified eagle medium (DMEM, Sigma-Aldrich St. Louis, USA) supplemented with 2 mM L-glutamine (AppliChem, Denmark), 10% foetal bovine serum (FBS, Sigma-Aldrich, USA), 100 units/mL of penicillin and 100 µg/mL of streptomycin (Fisher Scientific, Pittsburgh, USA) in culture flasks, in an incubator with a humidified atmosphere containing 5% CO2, at 37 °C under hypoxic conditions (1% O2), managing to mimic the tumour microenvironment in vivo.
(§2) Cells (200 µL, 2 × 10^4 cells/well) were seeded in 96-well plates and were cultured for 12 h at 37 °C under hypoxic conditions (1% O2). Subsequently, the samples dissolved in dimethyl sulfoxide (DMSO ≥ 99.9% Sigma-Aldrich, CAS Number 67-68-5) were added at different concentrations for 72 h. Actinomycin D (ACT ≥ 95% Sigma-Aldrich, CAS Number 50-76-0) was used as a positive control. Cells were then fixed with 10% trichloroacetic acid (TCA ≥ 99.0% Sigma-Aldrich, CAS Number 76-03-9) for 1 h at 4 °C. After washing with distilled water, 100 μL of 0.4% sulforhodamine B (SRB Dye content 75 % Sigma-Aldrich, CAS Number 3520-42-1) in 1% acetic acid (AcOH ≥ 99.0% Sigma-Aldrich, CAS Number 64-19-7) were added to each well and incubated for 20 min. After washing them three times with 1% TCA, the plates were air-dried, and stained cells were dissolved with 100 μL/well of 10 mM unbuffered tris(hydroxymethyl)aminomethane (Tris Base ≥ 99.9% Sigma-Aldrich, CAS Number 77-86-1). The optical density of the microplates was measured at 540 nm, using an ELISA plate reader, SpectraMax® i3, Molecular Devices.
(§3) All analyses were performed using version 9.0.0 of GraphPad Prism Software LLC from 1994–2020 (www.graphpad.com, accessed on 2 January 2023). Using non-linear regression, the values of 50% cytotoxic concentration (CC50) and 50% inhibitory concentration (IC50) were determined. […]

[1] = SRB viability assay, TKPTS cells; format: cell-based; details: mouse, TKPTS non-tumour cell line, hypoxic conditions (1% O2)
Source text: as §1, §2, §3

[2] = SRB viability assay, FL83B cells; format: cell-based; details: mouse, FL83B non-tumour cell line, hypoxic conditions (1% O2)
Source text: as §1, §2, §3

Hepa-1c1c7 cells = assay: SRB viability assay, Hepa-1c1c7 cells; format: cell-based; details: Mus musculus
Source text: as §1, §2, §3

cathepsin B [3] = molecular target: T1, cathepsin B (Mus musculus, UniProt P10605); assay: Inhibition of cathepsin B activity, Hepa-1c1c7 cells; format: cell-based; details: Hepa-1c1c7 tumour cells
T1 construct: Cathepsin B activity in the cell medium; endogenous in cells; host or cells: Hepa-1c1c7 (CRL-2026)
T1 sequence (P10605 80-339): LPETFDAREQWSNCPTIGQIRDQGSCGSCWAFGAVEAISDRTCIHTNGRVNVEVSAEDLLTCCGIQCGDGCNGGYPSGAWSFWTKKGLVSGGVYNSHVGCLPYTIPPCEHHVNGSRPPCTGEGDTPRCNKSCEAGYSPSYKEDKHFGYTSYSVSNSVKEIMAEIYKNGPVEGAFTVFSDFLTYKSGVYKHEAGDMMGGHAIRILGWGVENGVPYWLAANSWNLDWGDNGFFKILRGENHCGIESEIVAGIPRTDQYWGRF
Procedure: (§4) For the determination of the cathepsin B’s inhibition activity, its superficial expression in two tumour cell lines (ACHN and Hepa-1c1c7 cells) and two non-tumour cell lines (TKPTS and FL83B cells) was evaluated by flow cytometry.
(§5) Cathepsin B activity in the cell medium was evaluated by using a fluorogenic substrate: Abz-Gly-Ile-Val-Arg~Ala-Lys(Dnp)-OH. This peptide substrate was purchased from Bachem AG (Bubendorf, Switzerland). The reactions were performed at 40 °C for 10 min [38]. Stock solutions of inhibitory compounds were prepared in DMSO (in a concentration of 10 mM). From these stock solutions, increasing concentrations of the inhibitory compounds (1 and 100 nM) were prepared. […] Fluorescence was measured with excitation/emission wavelength values of 320 and 420 nm, respectively, using the Cary Eclipse fluorescence spectrophotometer (Agilent Technologies, Melbourne, Australia).
(§6) All analyses were performed using version 9.0.0 of GraphPad Prism Software LLC from 1994–2020 (www.graphpad.com, accessed on 2 January 2023). Using non-linear regression, the values of 50% cytotoxic concentration (CC50) and 50% inhibitory concentration (IC50) were determined. In addition, a one-way ANOVA statistical analysis was performed to assess whether the differences between the values were statistically significant (p < 0.05; p < 0.001, Tukey’s multiple comparisons test). All experiments were performed in triplicate.

cathepsin B [4] = molecular target: T1, cathepsin B; assay: Inhibition of cathepsin B activity, TKPTS cells; format: cell-based; details: TKPTS non-tumour cells
Procedure: as §4, §5, §6

cathepsin B [5] = molecular target: T1, cathepsin B; assay: Inhibition of cathepsin B activity, FL83B cells; format: cell-based; details: FL83B non-tumour cells
Procedure: as §4, §5, §6

C57BL/6 mice = assay: Acute toxicity in vivo; details: 4 mg/kg i.p.; for Physical aspect and weight after the third day of treatment: mice, day 3
Procedure: Adult male C57BL/6 mice weighing 25–35 g were purchased from the Centre for Laboratory Animals of the Faculty of Medicine from the University Autónoma of Madrid (Spain) and maintained under controlled temperature conditions (22 ± 2 °C), with a constant 12 h light-dark cycle and with access to food and water ad libitum.
Five groups (five mice per group) were selected for this study.
All animals were kept under observation for 7 days, during which their physical aspect, behaviour, and the number of deaths were recorded daily. The negative control (normal saline solution) received only the same quantity of the vehicle (distilled water). These tests were carried out in triplicate. All the surviving animals were euthanised at the end of the study, and their vital organs were individually observed by necropsy and checked for overt pathology.

cathepsin B [6] = molecular target: T2, cathepsin B (Homo sapiens, UniProt P07858); assay: Inhibition of cathepsin B activity, ACHN cells; format: cell-based; details: ACHN tumour cells
T2 construct: Cathepsin B activity in the cell medium; endogenous in cells; host or cells: ACHN (CRL-1611)
Procedure: as §4, §5, §6

[7] = ACHN tumour cell line, SRB, hypoxic conditions (1% O2), read-out: CC50
[8] = TKPTS normal kidney proximal tubule cells
[9] = FL83B normal foetal liver hepatocyte cells
[10] = Hepa-1c1c7 tumour cell line, SRB, 72 h, hypoxic conditions (1% O2), read-out: CC50

Row | SMILES | CC50 (ACHN cells; ACHN) | CC50 at 72 h [1] | CC50 at 72 h [2] | CC50 (Hepa-1c1c7 cells; Hepa-1c1c7, 72 h) | Ki (cathepsin B [3]) | Ki (cathepsin B [4]) | Ki (cathepsin B [5]) | Physical aspect and weight after the third day of treatment (C57BL/6 mice) | CC50 (ACHN cells; [7]) | CC50 at 72 h [1, 8] | CC50 at 72 h [2, 9] | Ki (cathepsin B [6]) | CC50 (Hepa-1c1c7 cells; [10]) | In vivo toxicity (C57BL/6 mice; murine model, 4 mg/kg)
1 | Cc1c2oc3c(C)ccc(C(=O)N[C@@H]4C(=O)N[C@H](C(C)C)C(=O)N5CCC[C@H]5C(=O)N(C)CC(=O)N(C)[C@@H](C(C)C)C(=O)O[C@@H]4C)c3nc-2c(C(=O)N[C@@H]2C(=O)N[C@H](C(C)C)C(=O)N3CCC[C@H]3C(=O)N(C)CC(=O)N(C)[C@@H](C(C)C)C(=O)O[C@@H]2C)c(N)c1=O [Actinomycin, Actinomycin D, reference compound] (I: T[dV]P[Sar][NMeV] / II: T[dV]P[Sar][NMeV]; ester I:1-I:C, II:1-II:C; linker I:N-II:N via Actinocin(9to1)) | 9 ± 0.6 nM | 3 ± 0.5 nM | 6 ± 0.6 nM | 14 ± 0.6 nM |  |  |  |  |  |  |  |  |  | 
2 | CCCNC(=O)[C@H]1O[C@@H]1C(=O)N[C@H](C(=O)N1CCC[C@H]1C(=O)O)[C@@H](C)CC (relative stereo) [CA 074, reference compound] |  |  |  |  | 5.99 ± 0.64 nM | 2.39 ± 0.12 nM | 3.08 ± 0.19 nM | active and showed no apparent weight loss |  |  |  |  |  | 
3 | CCCCCC1=NN(C(=O)CCOC(=O)CCC(=O)O)O[C@H](CCCCC)C1 [Compound 3, 4-{3-[(6R)-5,6-Dihydro-4,6-dipentyl-2H-1,2,3-oxadiazin-2-yl]-3-oxopropoxy}-4-oxobutanoic acid] |  |  |  |  | 1.76 ± 0.24 nM | 3.29 ± 0.4 nM | 4.55 ± 0.81 nM | active and showed no apparent weight loss | 730 ± 100 nM | 1620 ± 60 nM | 2800 ± 90 nM | 1.52 ± 0.13 nM | 910 ± 80 nM | no in vivo toxicity; also recorded: did not show toxicity in vivo
4 | CCCCCC1=NN(C(=O)CCOC(C)=O)O[C@H](CCCCC)C1 [Compound 2, 3-[(6R)-5,6-dihydro-4,6-dipentyl-2H-1,2,3-oxadiazin-2-yl]-3-oxopropyl acetate] |  |  |  |  | 6.59 ± 0.65 nM | 0.49 ± 0.05 nM | 0.66 ± 0.09 nM | weight loss and signs of disease (bowed backs, loss of hair shine, and slow movements) | 220 ± 30 nM | 1060 ± 40 nM | 1940 ± 80 nM | 5.67 ± 0.68 nM | 630 ± 50 nM | 
5 | CCCCCC1=NN(C(=O)CCO)O[C@H](CCCCC)C1 [Compound 1, 1-[(6R)-5,6-dihydro-4,6-dipentyl-2H-1,2,3-oxadiazin-2-yl]-3-hydroxypropan-1-one] |  |  |  |  | 3.37 ± 0.24 nM | 2.13 ± 0.04 nM | 2.61 ± 0.02 nM | active and showed no apparent weight loss | 760 ± 90 nM | 1100 ± 50 nM | 2360 ± 100 nM | 3.06 ± 0.13 nM | 1250 ± 60 nM | 
